Consider six compounds from US20260116920A1, “HUMAN TRANSFERRIN RECEPTOR BINDING PEPTIDE” (PEPTIDREAM INC., priority 2021, published 2026).

The target in the experiment is T1, human transferrin receptor (hTfR) (Homo sapiens, UniProt P02786).
T1 construct: made in house
As to the kind of experiment: Evaluation of molecular interaction between transferrin receptor (hTfR) and peptide using surface plasmon resonance (SPR). It counts as binding. The procedure: Evaluation Test of Molecular Interaction Between Transferrin Receptor (hTfR) and Peptide Using Surface Plasmon Resonance (SPR)
The intermolecular interactions of various synthesized peptides with the transferrin receptor (hTfR) by surface plasmon resonance (SPR) of the peptides were tested by the methods described below. Specific test methods are shown below.
NTA sensor chip (Global Life Sciences Technologies Japan K.K.) was inserted into BiacoreT200 (Global Life Sciences Technologies Japan K.K.), then the priming operation was performed three times by using running buffer containing: 10 mM HEPES pH 8.0 (Nacalai Tesque, Inc.), 150 mM NaCl (Nacalai Tesque, Inc.), 0.05% Tween 20 (Nacalai Tesque, Inc.), 0.1% BSA (SIGMA-ALDRICH) and 1.0% DMSO (FUJIFILM Wako Pure Chemical Corporation), and equilibrated at a flow rate of 30 μL/min. 350 mM EDTA solution was reacted at a flow rate of 10 μL/min for 60 seconds, 0.5 mM […] solution (Kishida Chemical Co., Ltd.) was reacted at a flow rate of 10 μL/min for 60 seconds, and then the NTA sensor chip was washed with 3 mM EDTA solution (Nacalai Tesque, Inc.) at a flow rate of 10 μL/min for 60 seconds. After mixing 50 μL each of 60 mM EDC solution (Global Life Science Technologies Japan K.K.) and 650 mM NHS solution (Global Life Science Technologies Japan K.K.), the reaction was carried out at a flow rate of 10 μL/min for 420 seconds. 150 μL of 0.5 μM hTfR dimer solution was prepared by dilution with running buffer and reacted at a flow rate of 10 μL/min for 300 seconds to immobilize hTfR on the NTA sensor chip. For the human transferrin receptor (hTfR), recombinant hTfR described in Example 2 of WO2018/124121 was used. After immobilization, capping was performed by reacting with 1.0 M ethanolamine solution (Global Life Sciences Technologies Japan K.K.) at a flow rate of 10 μL/min for 420 seconds. Peptide lysate prepared in DMSO solution to 10 mM was diluted with running buffer to be a final concentration of 10 μM peptide lysate, then peptide solutions of 100 nM, 50 nM, 25 nM, 10 nM, and 5 nM were prepared. Using the above samples, the kinetics of the peptide against hTfR was obtained by SPR measurement.
The kinetic evaluation model was single-cycle kinetics, and curve fitting was performed using Biacore T200 Evaluation Software Version 3.0 (Global Life Science Technologies Japan K.K.). The binding of the peptide to hTfR was evaluated by performing curve fitting on the obtained sensorgram by least squares method and obtaining the KD value.
In general terms: SPR reads the build-up and loss of mass on a sensor chip optically.

Where [1] appears, read: KD class for binding to hTfR by SPR, peptide with the linker shown in the same line, 'low signal indicates no activity', read-out: SPR.
The mark [2] stands for this setting: surface plasmon resonance, binding to hTfR, KD class symbol, read-out: SPR (KD value).

Like-named read-outs stand apart in the source and are kept apart here. Starred links: 1 amine or outer side, 2 acyl side, 3 side chain; linkers in the order of their positions; H or OH if unused. Positions of bridges follow the written chain, without caps; N, C: chain ends. Non-standard residues stand in square brackets, D forms with d. Residues, ends and D or L forms follow the SMILES beside them. *: point of attachment. E(PEG8Me) = (S)-30-amino-27-oxo-2,5,8,11,14,17,20,23-octaoxa-26-azahentriacontane-31-oic acid, COCCOCCOCCOCCOCCOCCOCCOCCNC(=O)CC[C@H](N[*:1])C(=O)[*:2]; F4aao = (S)-2-amino-3-(4-(carboxymethoxy)phenyl)propanoic acid, O=C([C@H](Cc1ccc(OCC(=O)[*:3])cc1)N[*:1])[*:2]; Trp(1-CH2CO) = O=C([C@H](Cc1cn(CC(=O)[*:3])c2ccccc12)N[*:1])[*:2]; Trp(1-CH2COOH) = N[C@@H](Cc1cn(CC(=O)O)c2ccccc12)C(=O)O; Phe(3-COOH) = N[C@@H](Cc1cccc(C(=O)O)c1)C(=O)O; NMePhe(3-Cl) = CN[C@@H](Cc1cccc(Cl)c1)C(=O)O; Lys(N3) = [N-]=[N+]=NCCCC[C@H](N)C(=O)O; NMeY = CN[C@@H](Cc1ccc(O)cc1)C(=O)O; Carboxymethyl = O=C(O)C*

T1 sequence (P02786 89-760 limits assumed): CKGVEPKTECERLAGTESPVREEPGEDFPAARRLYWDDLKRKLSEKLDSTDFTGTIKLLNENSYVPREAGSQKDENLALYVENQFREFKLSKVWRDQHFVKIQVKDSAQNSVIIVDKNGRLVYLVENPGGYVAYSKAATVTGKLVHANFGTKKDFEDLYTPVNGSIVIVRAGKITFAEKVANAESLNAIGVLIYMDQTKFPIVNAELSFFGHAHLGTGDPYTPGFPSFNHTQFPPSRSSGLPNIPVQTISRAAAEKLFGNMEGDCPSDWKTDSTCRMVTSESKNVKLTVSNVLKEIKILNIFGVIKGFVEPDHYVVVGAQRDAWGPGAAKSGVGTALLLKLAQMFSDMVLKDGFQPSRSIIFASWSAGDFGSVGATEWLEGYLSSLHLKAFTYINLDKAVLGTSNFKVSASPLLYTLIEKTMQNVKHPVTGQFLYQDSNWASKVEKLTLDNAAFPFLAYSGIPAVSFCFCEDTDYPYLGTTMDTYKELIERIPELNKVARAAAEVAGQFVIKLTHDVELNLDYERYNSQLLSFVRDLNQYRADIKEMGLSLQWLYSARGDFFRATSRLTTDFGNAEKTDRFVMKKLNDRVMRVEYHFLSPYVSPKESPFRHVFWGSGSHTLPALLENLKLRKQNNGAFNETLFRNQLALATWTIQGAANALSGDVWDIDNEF

In the case of `CC[C@H](C)[C@@H]1NC(=O)[C@H](Cc2ccc(OCC(=O)O)cc2)NC(=O)[C@H](Cc2ccc(O)cc2)NC(=O)[C@H](CC(N)=O)NC(=O)[C@H](Cc2cn(CC(=O)O)c3ccccc23)NC(=O)[C@H](C(C)C)NC(=O)[C@H](Cc2cccc(Cl)c2)N(C)C(=O)[C@H](C(C)C)NC(=O)[C@H](C)NC(=O)CSC[C@@H](C(=O)NCC(=O)N[C@@H](CCCCN=[N+]=[N-])C(N)=O)NC(=O)[C@H](Cc2ccc(O)cc2)N(C)C(=O)[C@H](Cc2ccccc2)NC(=O)[C@H](CCC(N)=O)NC(=O)[C@H](CCC(N)=O)NC(=O)[C@H]([C@@H](C)CC)NC1=O` [894_3178] ({CH2CO}-AV[NMePhe(3-Cl)]V[Trp(1-CH2COOH)]NYY(Carboxymethyl)IIQQF[NMeY]CG[Lys(N3)]-NH2; thioether N-15), the Kd under setting [1] is 1 to 100 nM.

For “894_3184 ({CH2CO}-AV[NMePhe(3-Cl)]V[Trp(1-CH2CO)]NY[F4aao]II[E(PEG8Me)][E(PEG8Me)][Phe(3-COOH)][NMeY]CG[Lys(N3)]-NH2; thioether N-15; SMILES CC[C@H](C)[C@@H]1NC(=O)[C@H](Cc2ccc(OCC(=O)O)cc2)NC(=O)[C@H](Cc2ccc(O)cc2)NC(=O)[C@H](CC(N)=O)NC(=O)[C@H](Cc2cn(CC(=O)O)c3ccccc23)NC(=O)[C@H](C(C)C)NC(=O)[C@H](Cc2cccc(Cl)c2)N(C)C(=O)[C@H](C(C)C)NC(=O)[C@H](C)NC(=O)CSC[C@@H](C(=O)NCC(=O)N[C@@H](CCCCN=[N+]=[N-])C(N)=O)NC(=O)[C@H](Cc2ccc(O)cc2)N(C)C(=O)[C@H](Cc2cccc(C(=O)O)c2)NC(=O)[C@H](CCC(=O)NCCOCCOCCOCCOCCOCCOCCOCCOC)NC(=O)[C@H](CCC(=O)NCCOCCOCCOCCOCCOCCOCCOCCOC)NC(=O)[C@H]([C@@H](C)CC)NC1=O)”, the SPR entry (KD class for binding to hTfR by SPR, peptide with the linker shown in the same line, 'low signal indicates no activity') is “Low signal”.

As to `CC[C@H](C)[C@@H]1NC(=O)[C@H](Cc2ccc(OCC(=O)O)cc2)NC(=O)[C@H](Cc2ccc(O)cc2)NC(=O)[C@H](CC(N)=O)NC(=O)[C@H](Cc2cn(CC(=O)O)c3ccccc23)NC(=O)[C@H](C(C)C)NC(=O)[C@H](Cc2cccc(Cl)c2)N(C)C(=O)[C@H](C(C)C)NC(=O)[C@H](C)NC(=O)CSC[C@@H](C(=O)NCC(=O)N[C@@H](CCCCN=[N+]=[N-])C(N)=O)NC(=O)[C@H](Cc2ccc(O)cc2)N(C)C(=O)[C@H](Cc2ccccc2)NC(=O)[C@H](CCCNC(=N)N)NC(=O)[C@H](CCC(N)=O)NC(=O)[C@H]([C@@H](C)CC)NC1=O` [894_3176], the Kd under setting [1] was in the range of 1 to 100 nM.

Consider `CC[C@H](C)[C@@H]1NC(=O)[C@H](Cc2ccc(OCC(=O)O)cc2)NC(=O)[C@H](Cc2ccc(O)cc2)NC(=O)[C@H](CC(N)=O)NC(=O)[C@H](Cc2c[nH]c3ncccc23)NC(=O)[C@H](C(C)C)NC(=O)[C@H](Cc2cccc(Cl)c2)N(C)C(=O)[C@H](C(C)C)NC(=O)[C@H](C)NC(=O)CSC[C@@H](C(=O)NCCOCCOCCOCCOCCC(N)=O)NC(=O)[C@H](Cc2ccc(C(=O)NCCOCCOCCOCCOC)cc2)N(C)C(=O)[C@H](Cc2cccc(C(=O)NCCOCCOCCOCCOC)c2)NC(=O)[C@H](CCCNC(=N)N)NC(=O)[C@H](CCC(N)=O)NC(=O)[C@H]([C@@H](C)CC)NC1=O` [compound 131], for which the Kd under setting [2] was 1 to 100 nM.

For the compound `CC[C@H](C)[C@@H]1NC(=O)[C@H](Cc2ccc(O)cc2)NC(=O)[C@H](Cc2ccc(O)cc2)NC(=O)[C@H](CC(=O)N(C)C)NC(=O)[C@H](Cc2c[nH]c3ccccc23)NC(=O)[C@H](C(C)C)NC(=O)[C@H](Cc2ccccc2)N(C)C(=O)[C@H](C(C)C)NC(=O)[C@H](C)NC(=O)CSC[C@@H](C(N)=O)NC(=O)[C@H](Cc2ccc(O)cc2)N(C)C(=O)[C@H](Cc2ccc(O)cc2)NC(=O)[C@H](CCCNC(=N)N)NC(=O)[C@H](CCCNC(=N)N)NC(=O)[C@H]([C@@H](C)CC)NC1=O` [compound 9], the Kd under setting [2] lay in the range of 100 to 1000 nM.

With `CC[C@H](C)[C@@H]1NC(=O)[C@H](Cc2ccc(OC)cc2)NC(=O)[C@H](Cc2ccc(O)cc2)NC(=O)[C@H](CC(N)=O)NC(=O)[C@H](Cc2c[nH]c3ccccc23)N(C)C(=O)[C@H](C(C)C)NC(=O)[C@H](Cc2ccc(F)cc2)N(C)C(=O)[C@H](C(C)C)NC(=O)[C@H](C)NC(=O)CSC[C@@H](C(=O)NCCOCCOCCOCCOCCC(N)=O)NC(=O)[C@H](Cc2ccc(O)cc2)N(C)C(=O)[C@H](Cc2ccccc2)NC(=O)[C@@H](CCCNC(=N)N)NC(=O)[C@H](CCCNC(=N)N)NC(=O)[C@H]([C@@H](C)CC)NC1=O` [compound 29], under setting [2], the Kd fell in the range of 1 to 100 nM.
